Data taken from ChEMBL document CHEMBL5634172, “Peniditerpenoids A and B: Oxidized Indole Diterpenoids with Osteoclast Differentiation Inhibitory Activity from a Mangrove-Sediment-Derived Penicillium sp” (J Nat Prod, 2024).
Active and inactive are the calls of the source. No cut-off for these calls is given here.

Key:
[1] = tested on: RAW264.7; assay: Antiinflammatory activity against mouse RAW264.7 cells stably transfected with luciferase reporter gene assessed as inhibition of LPS-induced NF-kB activation preincubated for 30 min followed by LPS stimulation for 8 hrs by luciferase based assay; assay type: functional, cell-based
[2] = tested on: BMDM; assay: Anti-osteoclastogenesis activity in RANKL/MCSF-induced mouse BMDM cells assessed as inhibition of osteoclast differentiation at 5 to 20 uM incubated for 3 days by TRAP-staining based microscopic analysis; assay type: functional, cell-based; conditions: dose 5-20 µM, time 3.0 day
[3] = biological target: T1, NF-kappa-B inhibitor alpha (Mus musculus) (UniProt Q9Z1E3); assay: Inhibition of IkappaBalpha phosphorylation in mouse RAW264.7 cells at 5 to 20 uM preincubated for 4 hrs followed by RANKL addition and measured after 30 mins by Western blot analysis; assay type: cell-based; conditions: dose 5-20 µM
T1 sequence (whole entry): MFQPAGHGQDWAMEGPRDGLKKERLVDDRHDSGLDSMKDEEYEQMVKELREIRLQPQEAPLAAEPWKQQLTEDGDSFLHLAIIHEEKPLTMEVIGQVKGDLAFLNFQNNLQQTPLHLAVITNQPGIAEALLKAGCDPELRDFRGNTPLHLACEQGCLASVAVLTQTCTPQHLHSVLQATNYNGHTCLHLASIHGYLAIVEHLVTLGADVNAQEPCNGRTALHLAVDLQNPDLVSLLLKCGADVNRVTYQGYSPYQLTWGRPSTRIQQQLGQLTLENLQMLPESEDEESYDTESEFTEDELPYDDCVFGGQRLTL

[4] = biological target: T2, Mitogen-activated protein kinase kinase kinase 7 (Mus musculus) (UniProt Q62073); assay: Inhibition of TAK1 activation in mouse RAW264.7 cells at 5 to 20 uM preincubated for 4 hrs followed by RANKL addition and measured after 30 mins by Western blot analysis; assay type: cell-based; conditions: dose 5-20 µM, time 4.5 hrs
T2 sequence (whole entry): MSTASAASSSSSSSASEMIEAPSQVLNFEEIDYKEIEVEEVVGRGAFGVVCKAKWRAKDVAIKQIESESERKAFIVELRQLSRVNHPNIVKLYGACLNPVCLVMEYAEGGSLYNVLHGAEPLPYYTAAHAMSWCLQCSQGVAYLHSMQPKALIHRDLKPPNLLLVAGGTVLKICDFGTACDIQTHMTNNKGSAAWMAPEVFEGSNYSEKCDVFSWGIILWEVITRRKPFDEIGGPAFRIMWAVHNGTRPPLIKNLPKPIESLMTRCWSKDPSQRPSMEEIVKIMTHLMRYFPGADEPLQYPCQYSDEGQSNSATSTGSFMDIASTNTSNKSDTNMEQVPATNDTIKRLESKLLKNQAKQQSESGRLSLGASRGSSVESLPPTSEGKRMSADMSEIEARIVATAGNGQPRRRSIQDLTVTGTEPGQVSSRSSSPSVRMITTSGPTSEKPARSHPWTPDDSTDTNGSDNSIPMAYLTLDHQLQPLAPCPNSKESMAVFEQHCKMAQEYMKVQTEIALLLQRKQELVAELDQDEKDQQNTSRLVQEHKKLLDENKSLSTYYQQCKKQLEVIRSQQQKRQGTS

[5] = tested on: RAW264.7; assay: Downregulation of nuclear NFATc1 expression in mouse RAW264.7 cells at 20 uM preincubated for 4 hrs followed by RANKL addition and measured after 24 hrs by Western blot analysis; assay type: functional, cell-based; conditions: time 28.0 hrs
[6] = tested on: RAW264.7; assay: Inhibition of p65 translocation in mouse RAW264.7 cells at 5 to 20 uM preincubated for 4 hrs followed by RANKL addition and measured after 30 mins by Western blot analysis; assay type: cell-based; conditions: dose 5-20 µM, time 4.5 hrs
[7] = tested on: RAW264.7; assay: Inhibition of p65 translocation in mouse RAW264.7 cells at 20 uM preincubated with RANKL for 24 hrs followed by compound addition and measured after 4 hrs by immunofluorescence analysis; assay type: cell-based
[8] = tested on: RAW264.7; assay: Upregulation of cytoplasmic p65 level in mouse RAW264.7 cells at 5 to 20 uM preincubated for 4 hrs followed by RANKL addition and measured after 30 mins by Western blot analysis; assay type: functional, cell-based; conditions: dose 5-20 µM, time 4.5 hrs
[9] = tested on: RAW264.7; assay: Cytotoxicity against mouse RAW264.7 cells assessed as reduction in cell viability at 5 to 20 uM incubated for 72 hrs by MTT assay; assay type: toxicity, cell-based; conditions: raw264.7, 72 h, dose 5-20 µM

| Compound | IC50 [1] | Activity [2] | inhibition [3] | inhibition [4] | Activity [5] | inhibition [6] | inhibition [7] | Activity [8] | Activity [9] |
| --- | --- | --- | --- | --- | --- | --- | --- | --- | --- |
| Cc1ccc(S(=O)(=O)/C=C/C#N)cc1 | 5 µM | – | – | – | – | – | – | – | – |
| CC1(C)O[C@@]23CC[C@@]4(C)[C@@](O)(CC[C@@H](CC(=O)c5ccccc5N)[C@]4(C)C(=O)O)C2=CC(=O)[C@@H]1O3 | 11 µM | Active | Active | Active | Active | Active | Active | Active | Non-Toxic |
